Molecules are shown by their SMILES. Like-named read-outs stand apart in the source and are kept apart here.

Results on 8 compounds are retold here after patent publication US12139508B2, “Steroid derivative regulators, method for preparing the same, and uses thereof” (JIANGSU HANSOH PHARMACEUTICAL GROUP CO., LTD., priority 2018, dated 2024).

For one data set, the system named is forced-swimming mice. Briefly: In vivo pharmacodynamic test in the forced swimming model in mice. Particulars: ICR mice; for Mean (immobility, %): 100*floating time/240 s; for Immobility time during the latter four minutes compared with that of the model group: forced swimming. Here is the method:
The antidepressant effect of the compound was evaluated by the forced swimming model in mice.
Male ICR mice (25-35 g) were adapted in the test environment for 3 days before the forced swimming test.
According to the test design, the mice were randomly grouped on the day before the test according to body weight, with 12 mice in each group. Before the test, the compounds of each example were administered intragastrically according to the Tmax thereof in the brain in mice pharmacokinetic test as follows: • 1) Model group (0.5% CMC-Na-1% Tween 80 solution, p.o., 10 mL/kg); • 2) Compounds of Example 2, Example 3, Example 5, Example 6, Example 9, Examples 59-63, Examples 71-73, Example 103, Example 135, Example 137, Example 145 and Example 146 (10 mg/kg, p.o., 10 mL/kg); Example 13 and Example 74 (5 mg/kg, p.o., 5 mL/kg).
When being administered, the compounds of each example were suspended in 0.5% CMC-Na+1% Tween 80 solution to the desired concentration.
0.5-1 hour after administration, ICR mice were placed in a forced swimming device (transparent glass drum (water depth 18 cm, water temperature 25-26° C.), one mouse per tank) and forced to swim for 6 minutes. The forced swimming device recorded the floating time of the ICR mice during the entire 6 minutes, and the data of the latter four minutes were used for data analysis. The mice were taken out immediately after the swimming test, wiped dry and put back in their original cages.
Note: The criterion for determining the immobility time is that the mouse stops struggling in water and floats, and there are only slight limb movements to keep the head floating on the water.
3.4 Data Analysis Floating time percentage=100*floating time/240 s.

A short description of data set [1]: Pharmacokinetic assay in Balb/c mice (plasma and brain tissue). In kind it is in vivo. To be noted: mouse, po, 5 mg/kg p.o., male Balb/c mice; for AUC(0-t): read-out: Area under curve AUC0-t; for AUC(0-inf): read-out: Area under curve AUC0-∞; for half-life: read-out: Half-life t1/2 (converted); for MRT: read-out: Mean residence time MRT; for Tmax: read-out: Peak time tmax; for Cmax: read-out: Plasma concentration Cmax. A digest of the protocol:
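Compound levels in plasma and brain were measured by LC/MS/MS with an internal standard after protein precipitation with acetonitrile. Samples came from overnight-fasted male Balb/c mice given 5 mg/kg p.o., with cardiac blood drawn at 0–24 h. Pharmacokinetic parameters were then calculated.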

Consider `C[C@@]1(O)CC[C@H]2[C@H](CC[C@@H]3[C@@H]2CC[C@@]2(C)[C@H]3[C@@H]3C[C@@H]3[C@@H]2C(=O)Cn2cc(C#N)cn2)C1` [Example 2, 1-(2-((2R,4aS,4bR,6aS,7S,7aS,8aR,8bR,8cR,10aR)-2-hydroxy-2,6a-dimethyloctadecahydrocyclopropa[4,5]cyclopenta[1,2-a]phenanthren-7-yl)-2-oxoethyl)-1H-pyrazole-4-carbonitrile], for which the “Mean (immobility, %)” value in the data set with forced-swimming mice (dose 10 mpk p.o.) is 54.26%. Moreover, in data set [1] (brain tissue), the AUC(0-t) amounted to 840 ng·h/mL; the AUC(0-inf) stood at 913 ng·h/mL; the half-life was 2.84 h; the MRT (commonly a mean duration of stay, worked out from the concentration-time curve) was determined as 2.39 h. In data set [1] (brain tissue), the Tmax (in general, the time from dosing to the highest level) worked out at 0.5 h and the Cmax came to 637 ng/mL. Moreover, in data set [1] (plasma), the AUC(0-t) came to 1360 ng·h/mL, the AUC(0-inf) amounted to 1370 ng·h/mL, the half-life is 0.54 h and the MRT worked out at 1.21 h. Besides, in data set [1] (plasma), the Tmax was found to be 0.5 h and the Cmax was determined as 1100 ng/mL.
In the case of `C[C@@]1(O)CC[C@H]2[C@H](CC[C@@H]3[C@@H]2CC[C@@]2(C)[C@H]3[C@@H]3C[C@@H]3[C@@H]2C(=O)Cn2ccc(C#N)n2)C1` [Example 3, 1-(2-((2R,4aS,4bR,6aS,7S,7aS,8aR,8bR,8cR,10aR)-2-hydroxy-2,6a-dimethyloctadecahydrocyclopropa[4,5]cyclopenta[1,2-a]phenanthren-7-yl)-2-oxoethyl)-1H-pyrazole-3-carbonitrile], the “Mean (immobility, %)” value with forced-swimming mice (dose 10 mpk p.o.) is given as 28.50%. For the same compound, in the data set with forced-swimming mice (dose 10 mpk p.o., latter four minutes of 6 min swim), the “Mean (immobility, s)” value is 68.39 s. For the same compound, in the data set on forced-swimming mice, the “Immobility time during the latter four minutes compared with that of the model group” value is “significantly different”. In data set [1] (brain tissue), the AUC(0-t) was determined as 719 ng·h/mL, the AUC(0-inf) is 722 ng·h/mL, the half-life was 0.5 h and the mean residence time MRT was 1.1 h. In addition, in data set [1] (brain tissue), the time to peak (Tmax) was determined as 0.5 h and the Cmax is 690 ng/mL. In data set [1] (plasma), the AUC(0-t) stood at 570 ng·h/mL, the AUC(0-inf) turned out to be 574 ng·h/mL, the half-life is 0.5 h and the MRT worked out at 1.01 h. In addition, in data set [1] (plasma), the time of peak concentration (Tmax) turned out to be 0.5 h and the Cmax worked out at 673 ng/mL.
On to `C[C@@]1(O)CC[C@H]2[C@H](CC[C@@H]3[C@@H]2CC[C@@]2(C)[C@H]3[C@@H]3C[C@@H]3[C@@H]2C(=O)Cn2cc(C(F)(F)F)cn2)C1` [Example 5, 1-((2R,4aS,4bR,6aS,7S,7aS,8aR,8bR,8cR,10aR)-2-Hydroxy-2,6a-dimethyloctadecahydrocyclopropa[4,5]cyclopenta[1,2-a]phenanthren-7-yl)-2-(4-(trifluoromethyl)-1H-pyrazol-1-yl)ethan-1-one], for which, in the data set on forced-swimming mice (dose 10 mpk p.o.), the “Mean (immobility, %)” value came out at 59.93%. Besides, in data set [1] (brain tissue), the AUC(0-t) came to 2300 ng·h/mL, the AUC(0-inf) is 3070 ng·h/mL, the half-life is 4.72 h and the MRT was found to be 5.53 h. For the same compound, in data set [1] (brain tissue), the Tmax came out at 0.5 h and the Cmax was 1410 ng/mL. Moreover, in data set [1] (plasma), the AUC(0-t) is 1240 ng·h/mL, the AUC(0-inf) was found to be 1250 ng·h/mL, the half-life was 5.12 h and the MRT stood at 4.8 h. For the same compound, in data set [1] (plasma), the Tmax amounted to 0.5 h and the Cmax was 461 ng/mL.
As to `C[C@@H]1C[C@H](C(=O)Cn2cc(C#N)cn2)[C@@]2(C)CC[C@H]3[C@@H](CC[C@@H]4C[C@](C)(O)CC[C@@H]43)[C@H]12` [Example 13, 1-(2-((3R,5R,8R,9R,10S,13S,14S,15R)-3-Hydroxy-3,13,15-trimethylhexadecahydro-1H-cyclopenta[a]phenanthren-17-yl)-2-oxoethyl)-1H-pyrazole-4-carbonitrile], the “Mean (immobility, %)” value in the data set with forced-swimming mice (dose 5 mpk p.o.) was found to be 57.60%. In addition, in data set [1] (brain tissue), the AUC(0-t) came to 4730 ng·h/mL, the AUC(0-inf) was found to be 4740 ng·h/mL, the half-life is 2.5 h and the MRT was determined as 3.9 h. For the same compound, in data set [1] (brain tissue), the Tmax was found to be 1 h and the Cmax was found to be 1060 ng/mL. For the same compound, in data set [1] (plasma), the AUC(0-t) amounted to 5060 ng·h/mL, the AUC(0-inf) was 5070 ng·h/mL, the half-life is 2.5 h and the MRT was 3.6 h. Further, in data set [1] (plasma), the Tmax turned out to be 1 h and the Cmax is 1210 ng/mL.
As to `C[C@@H]1C[C@H](C(=O)Cn2ccc(C#N)n2)[C@@]2(C)CC[C@H]3[C@@H](CC[C@@H]4C[C@](C)(O)CC[C@@H]43)[C@H]12` [Example 60, 1-(2-((3R,5R,8R,9R,10S,13S,14S,15R,17S)-3-Hydroxy-3,13,15-trimethylhexadecahydro-1H-cyclopenta[a]phenanthren-17-yl)-2-oxoethyl)-1H-pyrazole-3-carbonitrile], in the data set on forced-swimming mice (dose 10 mpk p.o.), the “Mean (immobility, %)” value came to 35.30%. In the data set with forced-swimming mice, the “Immobility time during the latter four minutes compared with that of the model group” value is “significantly different”. Further, in data set [1] (brain tissue), the AUC(0-t) was 2400 ng·h/mL, the AUC(0-inf) was found to be 2500 ng·h/mL, the half-life is 2.37 h and the mean residence time (MRT) is 2.35 h. In data set [1] (brain tissue), the Tmax was 1 h and the Cmax was found to be 998 ng/mL. Moreover, in data set [1] (plasma), the AUC(0-t) stood at 1700 ng·h/mL, the AUC(0-inf) came out at 1770 ng·h/mL, the half-life is 1.64 h and the MRT worked out at 1.43 h. For the same compound, in data set [1] (plasma), the Tmax stood at 0.5 h and the Cmax was 720 ng/mL.
As to `C[C@@]1(O)CC[C@H]2[C@H](CC[C@@H]3[C@@H]2CC[C@]2(C)C(C(=O)Cn4cc(C#N)cn4)C[C@@H](C4CC4)[C@@H]32)C1` (stereo partly drawn) [Example 71, 1-(2-((3R,5R,8R,9R,10S,13S,14S,15S)-15-Cyclopropyl-3-hydroxy-3,13-dimethylhexadecahydro-1H-cyclopenta[a]phenanthren-17-yl)-2-oxoethyl)-1H-pyrazole-4-carbonitrile], in the data set on forced-swimming mice (dose 10 mpk p.o.), the “Mean (immobility, %)” value worked out at 55.92%. Moreover, in data set [1] (brain tissue), the AUC(0-t) is 1130 ng·h/mL, the AUC(0-inf) worked out at 1280 ng·h/mL, the half-life was 2 h and the MRT was 3.66 h. Further, in data set [1] (brain tissue), the time to peak (Tmax) worked out at 1 h and the Cmax was determined as 383 ng/mL. In data set [1] (plasma), the AUC(0-t) came out at 1580 ng·h/mL, the AUC(0-inf) was 1760 ng·h/mL, the half-life was 2.04 h and the MRT was 3.5 h. In data set [1] (plasma), the Tmax turned out to be 1 h and the Cmax was 508 ng/mL.
As for `CC[C@@H]1C[C@H](C(=O)Cn2ccc(C#N)n2)[C@@]2(C)CC[C@H]3[C@@H](CC[C@@H]4C[C@](C)(O)CC[C@@H]43)[C@H]12` [Example 137, 1-(2-((3R,5R,8R,9R,10S,13S,14S,15R,17S)-15-Ethyl-3-hydroxy-3,13-dimethylhexadecahydro-1H-cyclopenta[a]phenanthren-17-yl)-2-oxoethyl)-1H-pyrazole-3-carbonitrile], the “Mean (immobility, %)” value with forced-swimming mice (dose 10 mpk p.o.) was 36.92%. In addition, in the data set on forced-swimming mice, the “Immobility time during the latter four minutes compared with that of the model group” value is on record as “significantly different”. In addition, in data set [1] (brain tissue), the AUC(0-t) was 2130 ng·h/mL, the AUC(0-inf) was 3160 ng·h/mL, the half-life is 6.02 h and the MRT is 7.58 h. In data set [1] (brain tissue), the Tmax amounted to 1 h and the Cmax was 613 ng/mL. Moreover, in data set [1] (plasma), the AUC(0-t) worked out at 2780 ng·h/mL, the AUC(0-inf) was 3790 ng·h/mL, the half-life is 3.85 h and the MRT was determined as 5.88 h. Further, in data set [1] (plasma), the Tmax was determined as 1 h and the Cmax amounted to 763 ng/mL.
As to `C[C@@]1(O)CC[C@H]2[C@H](CC[C@@H]3[C@@H]2CC[C@@]2(C)[C@H]3[C@H](C3CC3)C[C@@H]2C(=O)Cn2ccnn2)C1` [Example 145, 1-((3R,5R,8R,9R,10S,13S,14S,15S,17S)-15-Cyclopropyl-3-hydroxy-3,13-dimethylhexadecahydro-1H-cyclopenta[a]phenanthren-17-yl)-2-(1H-1,2,3-triazol-1-yl)ethan-1-one], the “Mean (immobility, %)” value in the data set on forced-swimming mice (dose 5 mpk p.o.) was 30.72%. In data set [1] (brain tissue), the AUC(0-t) was determined as 4820 ng·h/mL, the AUC(0-inf) was 5270 ng·h/mL, the half-life is 2.09 h and the mean residence time (MRT) came out at 3.4 h. Besides, in data set [1] (brain tissue), the Tmax worked out at 1 h and the Cmax was determined as 1480 ng/mL. Further, in data set [1] (plasma), the AUC(0-t) worked out at 13400 ng·h/mL, the AUC(0-inf) was found to be 13400 ng·h/mL, the half-life is 1.75 h and the MRT is 3.47 h. In data set [1] (plasma), the Tmax came out at 1 h and the Cmax is 2990 ng/mL.
